A short description of the data set: Human HepG2 cell viability assay in 384 well format. In kind it is toxicity, cell-based. Set-up: dose 125 nL, time 70.5 hour; cytotoxicity at 70.5 h: concentration not given beside the values. The settings on record: HepG2 cells, read-out: Inhibition.
Consider `CN(Cc1ccccc1)C1(C(=O)NCC(N)=O)Cc2ccccc2C1`, for which the cytotoxicity at 70.5 h worked out at 5.7%. In the case of `Cc1noc(C)c1CN1C[C@@H](NS(=O)(=O)N(C)C)[C@H](C(C)C)C1` it was -8.39%. With `Cc1ccc(NC(=O)Cn2ncc(SCC(N)=O)c(Cl)c2=O)cc1` the figure was -7.72%; with `COc1ccc2nc(C)c(C(=O)NCCN3CCS(=O)(=O)CC3)cc2c1`, -1.47%; with `O=C(NC1(c2cccc(F)c2)CCOCC1)c1ccccn1`, 12%.

On to `CC(C)NC(=O)N1Cc2nccn2CC(CN2CCCC2)C1` (stereo not drawn), for which the cytotoxicity at 70.5 h was -6.64%. With `CCCn1nc2c(cc1=O)CN(Cc1nnc(C3CC3)o1)CC2` the figure was 10.1%; with `CS(=O)(=O)N1CCc2[nH]nc(Cc3cccs3)c2C1`, -2.7%.

Regarding `C[C@@H]1CN(C2(C(=O)N3CC[C@H](O)C3)Cc3ccccc3C2)C[C@H](C)O1`, the cytotoxicity at 70.5 h was -11.9%. With `Cn1cnc2nc3n(c2c1=O)CCC3` the figure was 13.6%; with `CCN1C(=O)C2(CCCCC2)NC1c1cc(C#N)n(C)c1C` (stereo not drawn), -8.35%; with `Cc1cccc2c1nc(CCO)n2-c1ccc(C(=O)N2CCOCC2)o1`, -1.12%. In the case of `Cc1cc(NC(=O)CN2CCn3c(nnc3C(C)C)C2)on1` it was -0.984%; in that of `CN(C)CCNC(=O)c1ccccc1NC(=O)c1cc(Cl)ccc1Cl`, 26.4%; in that of `Cc1nn(C)c(Cl)c1CNCCOc1ccc2c(c1)OCO2`, 7.39%.

Regarding `CCNc1nc(C)c(C(=O)N(C)Cc2noc(C)n2)s1`, the cytotoxicity at 70.5 h came out at 11.7%. Regarding `CC(C)=CCCC1(C)C=Cc2c(cc(C)n(CC(=O)O)c2=O)O1` (stereo not drawn), the cytotoxicity at 70.5 h is -3.4%. With `COc1ccc2[nH]cc(C(=O)N3C[C@@H](O)[C@H](N4CCCC4)C3)c2c1` the figure was 17.1%; with `O=S(=O)(C1CC1)N1CC[C@H]2OCC[C@@]2(COc2ncccc2F)C1`, -12.6%; with `NC1CCCCN(Cc2ccccc2CS(=O)(=O)c2ccccc2)C1` (stereo not drawn), -8.29%. In the case of `Cn1ncc2c(N3CCCC(C)(O)C3)nc(-c3cccnc3)nc21` (stereo not drawn) it was 9.87%; in that of `CC(C)(C)OC(=O)N[C@H]1CCN(c2cncc(Br)c2)C1`, 23.7%; in that of `Cc1cc(C)c(C(=O)N(C)CCN(C)C(=O)c2[nH]c(C)cc2C)[nH]1`, -6.06%. In the case of `c1cnc(N2CCC(OCCN3CCCCC3)C2)nc1` (stereo not drawn) it was -10.2%; in that of `CNC(=O)c1ccc(=O)n(Cc2csc(N(C)C(C)=O)n2)c1`, -2.61%. For the molecule `CC(C)(C)n1nc(C(=O)NCC2(C(N)=O)CCOCC2)cc1C1CC1`, the cytotoxicity at 70.5 h was -22.5%. On to `Fc1ccccc1OCCN1CCCCC1Cn1cncn1` (stereo not drawn), for which the cytotoxicity at 70.5 h was found to be 2.55%. Take `Cc1ccc(C(=O)NCC(O)c2ccc(Cl)s2)c(=O)[nH]1` (stereo not drawn): the cytotoxicity at 70.5 h is -23.1%. In the case of `CC1c2ccsc2CCN1Cc1cc2c(cc1O)OCO2` (stereo not drawn) it was -5.73%. For the molecule `CN1C(=O)C(c2ccccc2)CC12CCN(CCN1CCCC1=O)CC2` (stereo not drawn), the cytotoxicity at 70.5 h came to 12.2%. Regarding `Cc1cccc(C(C)(C)NC(=O)CS(=O)(=O)CC(C)C)c1`, the cytotoxicity at 70.5 h is -4.98%. As for `Cc1sc(C(=O)NS(C)(=O)=O)cc1-c1ccc(F)cc1`, the cytotoxicity at 70.5 h is -4.18%. In the case of `NC(=O)N1CCC(C(=O)NC2CCc3nccn3C2)CC1` (stereo not drawn) it was -110%; in that of `COC(=O)c1cc(OCC2CCC2)cc(C(=O)N[C@@H]2CCCNC2)c1`, -18.2%.

As to `Cc1nc(C2CCCN(C(=O)c3cc(Cl)c[nH]3)C2)no1` (stereo not drawn), the cytotoxicity at 70.5 h was -15.5%.

On to `O=C(NCc1ccco1)N1CCN(Cc2ccc3c(c2)CCO3)CC1`, for which the cytotoxicity at 70.5 h is -6.39%. Regarding `CCc1nnc(CN(CC)C(=O)C2CC(=O)N(C3CCCC3)C2)o1` (stereo not drawn), the cytotoxicity at 70.5 h is -10.6%.

Consider `CC(=O)N1CCCC1c1nc(C)cc(-c2ccc(F)cc2)n1` (stereo not drawn), for which the cytotoxicity at 70.5 h is -1.51%.

Regarding `O=C(CCNS(=O)(=O)c1cccnc1)N1CCCCC1`, the cytotoxicity at 70.5 h is 15.8%.

`Cc1ccc(-c2noc(CCC(=O)NC(C)Cn3cccn3)n2)cc1` (stereo not drawn): the cytotoxicity at 70.5 h was -7.96%. With `N#CC1(NC(=O)c2cc(Cl)ccc2OC(F)F)CCOCC1` the figure was -17.7%; with `Cc1ccc(C(=O)CCC(=O)N2CCC(c3nncn3C)CC2)cc1`, -4.47%.

`Cc1ccc(CN2CC3(CCN(S(=O)(=O)c4ccccc4)C3)C2)o1`: the cytotoxicity at 70.5 h is 24.3%. For `Cc1occc1C(=O)Nc1cc(N2CCNC2=O)ccc1Cl`, the cytotoxicity at 70.5 h came to 6.66%.

As to `Cc1nc(CN2C(=O)C[C@@H]3[C@@H]2CCN3S(=O)(=O)C2CC2)cs1`, the cytotoxicity at 70.5 h was 19.1%. With `Cc1ccc(CNC(=O)CCC(=O)NCCC(C)C)o1` the figure was 18.9%. With `Cc1cc(=O)c(C(=O)N2CCC(C(O)Cc3ccccc3)CC2)c(C)[nH]1` (stereo not drawn) the figure was -14.4%; with `CCNC(=O)N1CCc2ccc(NC(=O)NCC3CC3)cc21`, -12.1%.

Take `O=C(C1CN(CC2CC2)CC12CCOCC2)N1CCOCC1` (stereo not drawn): the cytotoxicity at 70.5 h was -1.96%. In the case of `CC(C)[C@H]1CN(CCCO)C[C@@H]1NC(=O)CCS(C)(=O)=O` it was -3.16%. With `CCn1nc(C)c2c1cnn2CCNS(=O)(=O)CC` the figure was 3.21%; with `CN1CC(c2ccccc2)CC12CCN(C(=O)c1ccncc1)CC2` (stereo not drawn), -2.51%. With `Cc1cc(=O)c2cc(F)ccc2n1CC(=O)O` the figure was -3.7%; with `Cc1cc(CN(C)C(=O)NC(C)Cc2ccc(O)cc2)no1` (stereo not drawn), 0.825%; with `CNC(=O)[C@H]1C[C@@H]2CN(C(=O)c3cscn3)C[C@@H]2N1S(C)(=O)=O`, -1.08%.

With `Oc1ccc(Cl)cc1CNCc1cccc(C(F)(F)F)c1`, the cytotoxicity at 70.5 h is -12.9%. For the molecule `CC(=O)N1CC2(CCN(C(=O)c3cccc4[nH]ccc34)CC2)C1`, the cytotoxicity at 70.5 h is -8.74%. On to `O=C(NCCCN1CCN(c2ncccn2)CC1)Nc1ccccn1`, for which the cytotoxicity at 70.5 h is -2.48%. For `Brc1cnc(NCCCOC2CCOCC2)nc1`, the cytotoxicity at 70.5 h was -6.88%.

`COCCc1noc(CN2CCN(c3ccc(OC)cc3)C(=O)C2C)n1` (stereo not drawn): the cytotoxicity at 70.5 h was -15.8%. Regarding `Cc1ccc(CC(=O)N(C)CC2(O)CCN(c3ccccn3)C2)s1` (stereo not drawn), the cytotoxicity at 70.5 h is -6.87%. Consider `COCCNS(=O)(=O)c1ccc(Cl)c(C(=O)N(C)Cc2ccsc2)c1`, for which the cytotoxicity at 70.5 h was -5.32%. With `CNS(=O)(=O)c1cccc(CNC(=O)c2cc(C)no2)c1` the figure was 15.5%; with `COC(=O)Cn1c(=O)nc2n1C(=O)N(c1cccc(Cl)c1)C2`, -5.07%; with `COc1cccc(C2CCN2C(=O)c2cc(C(C)C)on2)c1` (stereo not drawn), -0.704%. `CC1CCCN(C(=O)C2CCN(c3snc4ccccc34)CC2)C1` (stereo not drawn): the cytotoxicity at 70.5 h came to 5.93%. With `O=C(CCc1nccs1)N1CCN(c2cccnn2)CC1` the figure was -3.92%; with `CCCC(=O)NC1CCN(c2ccccc2S(=O)(=O)CC)CC1`, 17.6%. For `N#Cc1ccccc1CN1CCC(CN2CCOCC2)C1` (stereo not drawn), the cytotoxicity at 70.5 h is -5.31%. In the case of `CC(C)N(C)[C@@H]1CCN(S(C)(=O)=O)[C@H]1Cc1ccccc1` it was -3.3%.

Take `O=C(NCCCN1CCOCC1)C1CCCN(Cc2ccco2)C1` (stereo not drawn): the cytotoxicity at 70.5 h is -1.31%. On to `O=C(NCC1CCOCC1)[C@H]1C[C@@H]2CCN(c3nncs3)C[C@@H]2O1`, for which the cytotoxicity at 70.5 h was -9.76%.

As for `Cc1cccc(C)c1OCCC(=O)N1CCC(c2nncn2C)CC1`, the cytotoxicity at 70.5 h is -21.4%.

For `CCc1noc(C2CCCCN2C(=O)c2ccccc2)n1` (stereo not drawn), the cytotoxicity at 70.5 h is -1.29%. In the case of `CCCn1cc(NC(=O)c2ccc(N(C)CC)cc2)ccc1=O` it was -7.67%. In the case of `CCc1nc(N)nc(NCCC(=O)NC2CCCCC2)c1C` it was -3.68%; in that of `CN(C)C[C@H]1OC[C@@H]2CCN(C(=O)Cc3cccs3)C[C@@H]21`, -9.21%. With `COc1ccc(CC(=O)Nc2c(C)nc(N3CCCC3)nc2C)cc1` the figure was -2.54%. Regarding `CCN(c1ccc(C(=O)NCCCN2CCOCC2)cc1)S(=O)(=O)CC`, the cytotoxicity at 70.5 h was found to be 17.8%. In the case of `CN(C)CCO[C@H]1CN(CC2CC2)[C@@H]2CCCO[C@H]12` it was 11.6%; in that of `CCN1CCN(C(=O)c2cccn2Cc2ccccc2)CC1`, -0.982%. In the case of `CN1CCC(c2cccc(C(=O)N(C)C)n2)CC1` it was -7.65%; in that of `O=C(c1ccco1)N1CCCC2(CN(Cc3ccoc3)CCO2)C1` (stereo not drawn), -0.421%; in that of `Cc1cc(CN[C@H](C(N)=O)[C@@H](C)O)c(C)s1`, -3.69%. Take `Cc1ncc2c(n1)CCCC2NC(=O)c1ccncc1` (stereo not drawn): the cytotoxicity at 70.5 h came out at 14.6%. In the case of `CN(C)C(=O)NC1COC2(CCN(Cc3ccccc3)CC2)C1` (stereo not drawn), the cytotoxicity at 70.5 h was 27.7%.

On to `c1ccc(-n2cncn2)c(CNCCn2cccn2)c1`, for which the cytotoxicity at 70.5 h came out at 10.2%. In the case of `CN1Cc2cnn(CC3CCCC3)c2C(COCC2CC2)C1` (stereo not drawn) it was -1.16%; in that of `CC(CN1CCC(CCO)CC1)n1cnc2ccccc21` (stereo not drawn), -11.4%. On to `CN(C)C[C@H]1OC[C@@H]2CCN(C(=O)c3cccn3C)C[C@@H]21`, for which the cytotoxicity at 70.5 h is -7.55%. In the case of `CCn1c(CN(C)C)nnc1C1CCN(Cc2ccc(Cl)cc2)CC1` it was 0.347%; in that of `CN1CCN(c2ccc(NCc3ccc([S+](C)[O-])cc3)cn2)CC1` (stereo not drawn), -0.416%; in that of `O=C(O)[C@@H]1CN(C(=O)CN2Cc3ccccc3C2)C[C@H]1c1ccncc1`, -1.71%.

As for `Cc1ncsc1C(=O)NCC1SCCc2ccccc21` (stereo not drawn), the cytotoxicity at 70.5 h is 6.22%.

`CC(SCc1cc(Br)cc2cccnc12)C(N)=O` (stereo not drawn): the cytotoxicity at 70.5 h is -16%. With `Cc1n[nH]c(C)c1C1COCCN1C(=O)c1cc(Cl)c[nH]1` (stereo not drawn) the figure was -5.39%; with `Cc1ncsc1C(=O)N(C)Cc1cccc(Cl)c1`, 9.51%. With `Cn1cc(CNCCC(=O)NCc2ccccc2)c(-c2cccnc2)n1` the figure was 2.26%.

Values taken from ChEMBL document CHEMBL3507680, “University of Dundee, Gates Library screen for HepG2 cell viability”.
